Measured values published in ChEMBL document CHEMBL5512683, “Discovery of Novel ERα and Aromatase Dual-Targeting PROTAC Degraders to Overcome Endocrine-Resistant Breast Cancer” (J Med Chem, 2024).
Calls of active or inactive are those of the source. The rule behind the calls is not given here.

Assays:
[1] = tested on: MCF7; test: Anti-proliferative activity against ERalpha positive human MCF7 cells incubated for 96 hrs by CCK8 assay; settings: MCF7, 96 h
[2] = Anti-proliferative activity against human MCF-10A cells incubated for 96 hrs by CCK8 assay; format: toxicity, cell-based
[3] = biological target: T1, Aromatase (Homo sapiens, UniProt P11511); test: Inhibition of recombinant human aromatase using ARO substrate/NADP+ mixture by fluorescence assay
T1 sequence (P11511 whole entry): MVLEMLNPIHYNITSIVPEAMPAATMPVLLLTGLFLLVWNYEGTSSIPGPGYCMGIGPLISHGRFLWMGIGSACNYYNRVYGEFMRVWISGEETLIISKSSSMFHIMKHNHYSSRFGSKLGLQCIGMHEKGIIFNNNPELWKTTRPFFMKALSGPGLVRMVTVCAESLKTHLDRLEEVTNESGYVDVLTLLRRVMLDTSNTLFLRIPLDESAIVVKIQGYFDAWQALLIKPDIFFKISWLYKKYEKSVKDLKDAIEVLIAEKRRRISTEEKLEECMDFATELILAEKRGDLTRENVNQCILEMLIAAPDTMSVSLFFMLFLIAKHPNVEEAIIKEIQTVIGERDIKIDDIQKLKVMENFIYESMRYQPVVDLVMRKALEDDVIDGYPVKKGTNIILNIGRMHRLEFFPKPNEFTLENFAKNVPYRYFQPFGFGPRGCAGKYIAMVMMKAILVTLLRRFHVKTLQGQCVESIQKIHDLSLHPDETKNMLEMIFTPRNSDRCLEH

[4] = biological target: von Hippel-Lindau disease tumor suppressor/Aromatase (Homo sapiens, UniProt P11511+P40337); test: PROTAC activity at human ARO/VHL E3 ligase in human MCF-7 cells assessed as degradation of ARO at 1 uM incubated for 24 hrs by Western blot analysis; format: cell-based; settings: mcf7, 24 h
[5] = tested on: MCF7; test: Antiproliferative activity against human resistant MCF7 cells harboring ERalpha Y537S mutant at LBD assessed as cell viability incubated for 96 hrs by CCK8 assay; settings: MCF7, 96 h
[6] = tested on: MCF7; test: Antiproliferative activity against human resistant MCF7 cells harboring ERalpha D538G mutant at LBD assessed as cell viability incubated for 96 hrs by CCK8 assay; settings: MCF7, 96 h
[7] = tested on: MCF7; test: Antiproliferative activity against human resistant MCF7 cells harboring EGFR assessed as cell viability incubated for 96 hrs by CCK8 assay; settings: MCF7, 96 h
[8] = biological target: Estrogen receptor beta (Homo sapiens, UniProt Q92731); test: Binding affinity to human ERbeta assessed as inhibition constant incubated under dark condition for 2 hrs by competitive fluorometric binding assay
[9] = tested on: MCF7; test: In vivo PROTAC activity in ERalpha/VHL E3 ligase in human MCF7 cell xenografted in Balb/c mouse model assessed as reduction in ERalpha level in tumor at 5 mg/kg, ip every other day measured upto 20 days; format: functional, organism-based; settings: time <= 20.0 day
[10] = tested on: MCF7; test: In vivo PROTAC activity in aromatase/VHL E3 ligase in human MCF7 cell xenografted in Balb/c mouse model assessed as reduction in ARO level in tumor at 5 mg/kg, ip every other day measured upto 20 days; format: functional, organism-based; settings: time <= 20.0 day

Sequence of Estrogen receptor beta (Q92731 whole entry): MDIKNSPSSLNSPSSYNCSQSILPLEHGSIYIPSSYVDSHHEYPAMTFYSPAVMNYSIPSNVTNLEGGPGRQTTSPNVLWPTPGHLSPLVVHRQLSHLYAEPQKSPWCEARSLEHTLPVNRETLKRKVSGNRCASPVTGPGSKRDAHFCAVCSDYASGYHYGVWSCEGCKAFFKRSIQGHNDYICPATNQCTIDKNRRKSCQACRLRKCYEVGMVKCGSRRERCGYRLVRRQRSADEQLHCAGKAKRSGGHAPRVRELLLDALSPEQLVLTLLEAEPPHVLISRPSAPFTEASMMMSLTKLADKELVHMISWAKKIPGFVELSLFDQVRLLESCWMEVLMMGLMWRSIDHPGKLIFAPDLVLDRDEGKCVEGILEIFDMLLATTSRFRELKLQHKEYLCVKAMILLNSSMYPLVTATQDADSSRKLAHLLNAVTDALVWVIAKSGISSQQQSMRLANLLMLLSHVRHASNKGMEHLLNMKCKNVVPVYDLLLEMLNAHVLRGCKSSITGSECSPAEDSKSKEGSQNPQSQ
Sequence of von Hippel-Lindau disease tumor suppressor/Aromatase (P40337 whole entry, one chain of several, the tested form may be a part): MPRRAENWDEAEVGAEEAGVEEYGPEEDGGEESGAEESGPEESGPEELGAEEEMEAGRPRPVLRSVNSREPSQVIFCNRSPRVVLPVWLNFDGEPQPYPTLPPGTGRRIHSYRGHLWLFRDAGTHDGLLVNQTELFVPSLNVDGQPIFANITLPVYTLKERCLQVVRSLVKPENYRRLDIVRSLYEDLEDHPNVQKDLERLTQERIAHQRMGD

Compound	IC50 [1] [µM]	IC50 at 96 h [2] [µM]	IC50 [3] [µM]	Activity [4]	IC50 [5] [µM]	IC50 [6] [µM]	IC50 [7] [µM]	Ki [8] [µM]	Activity [9]	Activity [10]
Cc1ncsc1-c1ccc([C@@H](C)NC(=O)[C@H]2C[C@H](O)CN2C(=O)[C@H](NC(=O)COCCOCCOCCOc2ccc(N(CC(F)(F)F)S(=O)(=O)C3CC4OC3C(c3ccc(-n5ccnc5)cc3)=C4c3ccc(O)cc3)cc2)C(C)(C)C)cc1 (stereo partly specified)	0.51	> 100	2.6	Active	100	> 100	7.3			
COc1ccc(N(CC(F)(F)F)S(=O)(=O)C2CC3OC2C(c2ccc(O)cc2)=C3c2ccc(O)cc2)cc1 (stereo unspecified)			> 100							
Cc1ncsc1-c1ccc([C@H](C)NC(=O)[C@@H]2C[C@@H](O)CN2C(=O)[C@@H](NC(=O)CCCCCCCCCOc2ccc(N(CC(F)(F)F)S(=O)(=O)C3CC4OC3C(c3ccc(-n5ccnc5)cc3)=C4c3ccc(O)cc3)cc2)C(C)(C)C)cc1 (stereo partly specified)	0.33	> 100	> 100	Active	100	> 100	> 100	> 79		
Cc1ncsc1-c1ccc([C@H](C)NC(=O)[C@@H]2C[C@@H](O)CN2C(=O)[C@@H](NC(=O)CCCOc2ccc(N(CC(F)(F)F)S(=O)(=O)C3CC4OC3C(c3ccc(-n5ccnc5)cc3)=C4c3ccc(O)cc3)cc2)C(C)(C)C)cc1 (stereo partly specified)	0.13	> 100	1.2	Active	> 100	> 100	> 100			
Cc1ncsc1-c1ccc([C@H](C)NC(=O)[C@@H]2C[C@@H](O)CN2C(=O)[C@@H](NC(=O)CCCCCCOc2ccc(N(CC(F)(F)F)S(=O)(=O)C3CC4OC3C(c3ccc(-n5ccnc5)cc3)=C4c3ccc(O)cc3)cc2)C(C)(C)C)cc1 (stereo partly specified)	2.3	> 100	5.2	Active	> 100	1.7	5.5			
O=C(COc1cccc2c1C(=O)N(C1CCC(=O)NC1=O)C2=O)NCCCOc1ccc(N(CC(F)(F)F)S(=O)(=O)C2CC3OC2C(c2ccc(-n4ccnc4)cc2)=C3c2ccc(O)cc2)cc1 (stereo unspecified)	8.7	> 100	> 100		9.5	6.4	25	> 79		
CC/C(=C(\c1ccc(O)cc1)c1ccc(OCCN(C)C)cc1)c1ccccc1 [AFIMOXIFENE]		21	> 100							
Cc1ncsc1-c1ccc([C@H](C)NC(=O)[C@@H]2C[C@@H](O)CN2C(=O)[C@@H](NC(=O)CCCCCOc2ccc(N(CC(F)(F)F)S(=O)(=O)C3CC4OC3C(c3ccc(-n5cncn5)cc3)=C4c3ccc(O)cc3)cc2)C(C)(C)C)cc1 (stereo partly specified)	0.56	> 100	> 100		4	0.69	0.63			
Cc1ncsc1-c1ccc([C@H](C)NC(=O)[C@@H]2C[C@@H](O)CN2C(=O)[C@@H](NC(=O)CCCCCCCCOc2ccc(N(CC(F)(F)F)S(=O)(=O)C3CC4OC3C(c3ccc(-n5ccnc5)cc3)=C4c3ccc(O)cc3)cc2)C(C)(C)C)cc1 (stereo partly specified)	1.3	> 100	> 100	Active	100	1.8	1.4	> 79		
Cc1ncsc1-c1ccc([C@H](C)NC(=O)[C@@H]2C[C@@H](O)CN2C(=O)[C@@H](NC(=O)CCCCCCCOc2ccc(N(CC(F)(F)F)S(=O)(=O)C3CC4OC3C(c3ccc(-n5ccnc5)cc3)=C4c3ccc(O)cc3)cc2)C(C)(C)C)cc1 (stereo partly specified)	1.8	> 100	10	Active	30	29	4.7			
Cc1ncsc1-c1ccc([C@H](C)NC(=O)[C@@H]2C[C@@H](O)CN2C(=O)[C@@H](NC(=O)CCCCOc2ccc(N(CC(F)(F)F)S(=O)(=O)C3CC4OC3C(c3ccc(-n5ccnc5)cc3)=C4c3ccc(O)cc3)cc2)C(C)(C)C)cc1 (stereo partly specified)	0.6	> 100	0.32	Active	> 100	100	2.2			
Cc1ncsc1-c1ccc([C@H](C)NC(=O)[C@@H]2C[C@@H](O)CN2C(=O)[C@@H](NC(=O)CCCCCCCCCCOc2ccc(N(CC(F)(F)F)S(=O)(=O)C3CC4OC3C(c3ccc(-n5ccnc5)cc3)=C4c3ccc(O)cc3)cc2)C(C)(C)C)cc1 (stereo partly specified)	4.9	> 100	> 100	Active	22	> 100	> 100			
Cc1ncsc1-c1ccc([C@H](C)NC(=O)[C@@H]2C[C@@H](O)CN2C(=O)[C@@H](NC(=O)CCCCCCCCCCCOc2ccc(N(CC(F)(F)F)S(=O)(=O)C3CC4OC3C(c3ccc(-n5ccnc5)cc3)=C4c3ccc(O)cc3)cc2)C(C)(C)C)cc1 (stereo partly specified)	2	> 100	> 100	Active	3.5	0.23	> 100	> 79		
Cc1ncsc1-c1ccc([C@H](C)NC(=O)[C@@H]2C[C@@H](O)CN2C(=O)[C@@H](NC(=O)COCCOc2ccc(N(CC(F)(F)F)S(=O)(=O)C3CC4OC3C(c3ccc(-n5ccnc5)cc3)=C4c3ccc(O)cc3)cc2)C(C)(C)C)cc1 (stereo partly specified)	1.5	> 100	3.9	Active	15	> 100	> 100	> 79		
C[C@]12CC[C@@H]3c4ccc(O)cc4C[C@@H](CCCCCCCCC[S+]([O-])CCCC(F)(F)C(F)(F)F)[C@H]3[C@@H]1CC[C@@H]2O (stereo partly specified) [FULVESTRANT]		> 100	> 100						Active	Active
O=C(COc1cccc2c1C(=O)N(C1CCC(=O)NC1=O)C2=O)NCCCCCOc1ccc(N(CC(F)(F)F)S(=O)(=O)C2CC3OC2C(c2ccc(-n4ccnc4)cc2)=C3c2ccc(O)cc2)cc1 (stereo unspecified)	9.3	> 100	> 100		23	3.6	23	> 79		
Cc1ncsc1-c1ccc([C@H](C)NC(=O)[C@@H]2C[C@@H](O)CN2C(=O)[C@@H](NC(=O)COCCOCCOCCOCCOc2ccc(N(CC(F)(F)F)S(=O)(=O)C3CC4OC3C(c3ccc(-n5ccnc5)cc3)=C4c3ccc(O)cc3)cc2)C(C)(C)C)cc1 (stereo partly specified)	2.4	> 100	0.64	Active	100	26	17			
N#Cc1ccc(C(c2ccc(C#N)cc2)n2cncn2)cc1 [LETROZOLE]		> 100							Active	Active
